Data reported in patent EP1978972B1, “USE OF ALKYLGLUCOSIDE ESTERS AS BETA-DEFENSIN INDUCERS” (Pierre Fabre Dermo-Cosmétique, priority 2006, dated 2007).
Read-outs that look alike come from different tables or passages of the source.

Key:
[1] = test system: hBD-2; assay: cells; type: cell-based, human; conditions: HaCat; for induction de la synthèse du peptide hBD-2: starting materials of the enzymatic synthesis, in words
From the text: (§1) Il est connu de WO 97/45101 que les esters d'α-alkylglucoside peuvent être utilisés comme agent anti-microbien et/ou anti-fongique pour agir en tant que conservateur dans une composition, pour la préserver d'un développement microbien. D'autre part, les propriétés moussantes des esters de méthyl glucose sont décrites dans Desai et al (« Sofw Journal Seife, Oele, Fette, Wachse, Verlag für chemische Industrie » 1991). • Modèle cellulaire : lignée cellulaire HaCat, kératynocytes d'origine humaine, primoculture de kératinocytes humains • Modèle tissulaire : • Explants de peau normale provenant de déchet opératoire de chirurgie esthétique • Explants de gencive normale provenant de déchet opératoire de chirurgie implantatoire ou d'épithélium gingival reconstruit à partir de cellules épithéliales orales primaires • ➢ Les cellules HaCat sont ensemencées et cultivées en plaque 6 puits à 200 000 cellules/puits sous un volume de 2 ml de milieu de culture DMEM 1640 : (Ref: Invitrogen) complémenté par 10 % de sérum de veau foetal (SVF, Ref : CH30160.02 Perbio-Hyclone) pendant 18 h (sur la nuit). • ➢ A T0 les cellules sont lavées avec du tampon Phosphate (PBS, Ref: 52100-039 Invitrogen) puis privées en sérum pour les rendre quiescentes pendant 24 h (ralentissement de leur croissance et élimination de toute trace de facteurs susceptibles de perturber les effets induits par les traitements ultérieurs). • ➢ A T0+24 h les cellules sont traitées par des cytokines pro-inflammatoires (TNF-α à 10 ng/ml, IL1-β à 10 ng/ml) ou des éléments bactériens (LPS à 50 ng/ml, SEB à 100 ng/ml) ou des actifs potentiels de type « alkyle mono- ou di-ester d'α,β-butylglucoside » dilués dans du DMEM (1 ml/puits); La durée du traitement est de 3 h à 37°C. • ➢ Les kératinocytes primaires sont préparés à partir de peau normale provenant de déchet opératoire de chirurgie esthétique. […]
La méthode de RT-PCR quantitative utilisée est décrite dans le matériel et méthode. […]

[2] = test system: hBD-2; type: cell-based, human; conditions: skin explant, systemic, 3 µg/ml, 2 h and 15 h, in words
From the text: as §1, with “esthétique. Ils sont ensemencés et cultivés en plaque 24 puits à 60 000 cellules/puits sous un volume de 0,5 ml de milieu de culture KSFM (Ref : 37010 Invitrogen) complémenté par de l'EGF (Epidermal Growth Factor) à 1,5 ng/ml et du BPE (bovine pituitary extract) à 25 µg/ml pendant 24 h. • ➢ A J0, le milieu est remplacé par 0,5 ml de milieu KSFM complet, additionné de 1,2 nM de calcium. • ➢ A J+3, les cellules sont traitées par des cytokines pro-inflammatoires TNF-α et IL 1-β à 10 ng/ml ou des actifs potentiels de type « alkyle mono- ou di-ester d'α,β-butylglucoside » dilués dans 0,3 ml de milieu KSFM complet, en présence de 1,2 nM de calcium.” for “esthétique.”

[3] = test system: S. aureus; assay: Adhesion of S. aureus on skin explant (modified Franz cell), count of adherent bacteria; type: cell-based, Staphylococcus aureus; conditions: topical 30 µg/ml
From the text: Pour révéler le complexe Antigène-Anticorps, le kit DAKO LSAB® (DAKO Corporation) est utilisé selon les recommandations du fournisseur. La révélation est réalisée à l'aide d'un substrat de la péroxydase : la 3,3'diaminobenzidine (DAB) (DAKO Corporation). La réaction enzymatique est révélée par une coloration brune. • ➢L'adhésion des micro-organismes est réalisée dans une cellule à double compartimentation, de type cellule de Franz modifiée. • ➢Une suspension de S.aureus (CIP 53.154) équivalente à 0,5.10^7 micro-organismes est introduite au sein du compartiment supérieur de la cellule. Le dispositif est incubé de 2 h à 37°C sous une atmosphère à 5 % de CO2. A la fin de cette période d'incubation, le surnageant est retiré afin d'éliminer les bactéries non adhérentes. Les échantillons de peau sont ensuite rincés deux fois avec 1 ml de mélange DMEM/HAMF12. Un dénombrement bactérien à l'issue de cette étape donne la proportion de bactéries ayant adhéré à l'explant (T+2 h). Un témoin est réalisé dans le but de déterminer l'adhésion non spécifique des bactéries. • ➢La stimulation de l'expression des β-défensines cutanées précède l'étape d'adhésion. Son objectif est d'étudier l'impact de l'induction des peptides antimicrobiens par des actifs potentiels de type « alkyle mono- ou di-ester d'α,β-butylglucoside » sur l'adhésion de souches bactériennes. Le traitement est effectué en topique ou en systémique. Le temps de stimulation des explants cutanés est de 24 h à 37°C en présence de 5 % de CO2.
Pour analyse, les explants sont retirés de leur cellule, des punchs de diamètres différents (3 mm, 4 mm et 6 mm) sont effectués pour un test MTT de survie, les marquages immuno-histologiques et les analyses des transcrits par RT-PCR. Le reste de peau est utilisé pour une estimation de la flore bactérienne adhérente.
Le dénombrement de la flore bactérienne adhérente exogène par unité de surface de peau a été effectué selon deux méthodes : • par dénombrement bactérien sur milieu solide • par comptage de la radioactivité émise (la souche contaminante étant marquée au H^3) est effectuée. […]
Après une application topique de 5 h et plusieurs rinçages de la surface épidermique d'un explant cutané, l'effet du traitement par l'α,β-LBG brut sur l'adhésion de S.aureus sur ce même explant a été quantifié par le dénombrement des germes adhérents à l'issue d'une mise en contact de 2 h. […]
Après application topique et plusieurs rinçages de la surface épidermique des explants cutanés, l'effet du traitement par les isoformes de l'ester de laurate de butylglucoside pur à 90 %, séparées, α seul, β seul, ou en mélange α,β-LBG (56 % α/44 % β) sur l'adhésion de S. aureus sur l'épiderme a été comparé après quantification des germes adhérents par dénombrement.

`CCCCCCCCCCCC(=O)O` [Acide Laurique] was tested, and the “induction de la synthèse du peptide hBD-2” value [1] was “ne provoquent pas une induction” and the fold induction at 10 µg/mL ([1]; Homo sapiens, hBD-2 mRNA, 3 h, 10 µg/ml, vs unstimulated control, read-out: Facteur d'induction (FI)) was 1.1.

In the case of laurate de butylglucoside [α-LBG pur], the “induction de l'expression du gène hBD-2” value ([2]; listed as α-LBG pure) is reported as “ne présente pas d'activité”.

In the case of laurate de butylglucoside [αβ-LBG pur], the “induction de l'expression du gène hBD-2” value [2] is reported as “potentiel inducteur significatif surtout après une durée de traitement longue” and the “baisse moyenne de l'adhésion de S. aureus” value ([3]; LBG pur à 90 %, vs untreated control) is reported as ~19%.

For laurate de butylglucoside [β-LBG pur], the “limitation de l'adhésion de S. aureus” value ([3]; comparison of isoforms, in words) was “en moyenne plus actif sur la limitation de l'adhésion de S. aureus que l'isoforme α-LBG”.

αβ-butylglucoside was tested, and the “induction de la synthèse du peptide hBD-2” value [1] was “ne provoquent pas une induction”.
